Converted amounts (≈) assume the structure as drawn.
Legend:
Prescottella equi = assay: Antibacterial activity against Rhodococcus equi harboring SPase with valine or isoleucine residue at position 29 by modified CLSI microbroth dilution method; format: functional; settings: Rhodococcus (subgen. Prescottella) equi
[1] = system: Staphylococcus epidermidis; assay: Antibacterial activity against wild type Staphylococcus epidermidis by CLSI broth microdilution method; format: functional
Staphylococcus aureus [2] = assay: Antibacterial activity against wild type Staphylococcus aureus by CLSI broth microdilution method; format: functional
Escherichia coli [3] = assay: Antibacterial activity against wild type Escherichia coli by CLSI broth microdilution method; format: functional
Pseudomonas aeruginosa [4] = assay: Antibacterial activity against wild type Pseudomonas aeruginosa by CLSI broth microdilution method; format: functional
Streptococcus agalactiae = assay: Antibacterial activity against wild type Streptococcus agalactiae by CLSI broth microdilution method; format: functional
Streptococcus pneumoniae [5] = assay: Antibacterial activity against wild type Streptococcus pneumoniae by CLSI broth microdilution method; format: functional
[6] = system: Staphylococcus epidermidis; assay: Antibacterial activity against Staphylococcus epidermidis harboring mutant SPase by CLSI broth microdilution method; format: functional
Staphylococcus aureus [7] = assay: Antibacterial activity against Staphylococcus aureus harboring mutant SPase by CLSI broth microdilution method; format: functional
Escherichia coli [8] = assay: Antibacterial activity against Escherichia coli harboring mutant SPase by CLSI broth microdilution method; format: functional
Pseudomonas aeruginosa [9] = assay: Antibacterial activity against Pseudomonas aeruginosa harboring mutant SPase by CLSI broth microdilution method; format: functional
[10] = system: Staphylococcus epidermidis; assay: Antibacterial activity against Staphylococcus epidermidis assessed as growth inhibition; format: functional
[11] = Binding affinity to Escherichia coli delta 2 to 75 truncated type 1 signal peptidase by fluorescence analysis
[12] = system: Staphylococcus epidermidis; assay: Antibacterial activity against Staphylococcus epidermidis harboring wild type SPase by modified CLSI microbroth dilution method; format: functional
[13] = system: Staphylococcus epidermidis; assay: Antibacterial activity against Staphylococcus epidermidis harboring SPase S29P mutant gene by modified CLSI microbroth dilution method; format: functional
Staphylococcus aureus [14] = assay: Antibacterial activity against Staphylococcus aureus harboring wild type SPase by modified CLSI microbroth dilution method; format: functional
Staphylococcus aureus [15] = assay: Antibacterial activity against Staphylococcus aureus harboring SPase P29S mutant gene by modified CLSI microbroth dilution method; format: functional
Escherichia coli [16] = assay: Antibacterial activity against Escherichia coli harboring wild type SPase by modified CLSI microbroth dilution method; format: functional
Escherichia coli [17] = assay: Antibacterial activity against Escherichia coli harboring SPase P84S mutant gene by modified CLSI microbroth dilution method; format: functional
Pseudomonas aeruginosa [18] = assay: Antibacterial activity against Pseudomonas aeruginosa harboring wild type SPase by modified CLSI microbroth dilution method; format: functional
Pseudomonas aeruginosa [19] = assay: Antibacterial activity against Pseudomonas aeruginosa harboring SPase P84S mutant gene by modified CLSI microbroth dilution method; format: functional
[20] = system: Staphylococcus epidermidis; assay: Antibacterial activity against Staphylococcus epidermidis harboring SPase with serine residue at position 29 by modified CLSI microbroth dilution method; format: functional
[21] = system: Staphylococcus haemolyticus; assay: Antibacterial activity against Staphylococcus haemolyticus harboring SPase with serine residue at position 29 by modified CLSI microbroth dilution method; format: functional
Rhodococcus opacus = assay: Antibacterial activity against Rhodococcus opacus harboring SPase with valine residue at position 29 by modified CLSI microbroth dilution method; format: functional
[22] = system: Corynebacterium glutamicum; assay: Antibacterial activity against Corynebacterium glutamicum harboring SPase with methionine residue at position 29 by modified CLSI microbroth dilution method; format: functional
Helicobacter pylori = assay: Antibacterial activity against Helicobacter pylori harboring SPase with alanine residue at position 29 by modified CLSI microbroth dilution method; format: functional
Chlamydia trachomatis = assay: Antibacterial activity against Chlamydia trachomatis harboring SPase with leucine residue at position 29 by modified CLSI microbroth dilution method; format: functional
Streptococcus pneumoniae [23] = assay: Antibacterial activity against Streptococcus pneumoniae harboring SPase with aspargine residue at position 29 by modified CLSI microbroth dilution method; format: functional
Streptococcus pyogenes = assay: Antibacterial activity against Streptococcus pyogenes harboring SPase with alanine residue at position 29 by modified CLSI microbroth dilution method; format: functional
Lactococcus lactis = assay: Antibacterial activity against Lactococcus lactis harboring SPase with leucine residue at position 29 by modified CLSI microbroth dilution method; format: functional

SMILES | MIC [1] [µg/mL] | MIC (Staphylococcus aureus [2]) [µg/mL] | MIC (Escherichia coli [3]) [µg/mL] | MIC (Pseudomonas aeruginosa [4]) [µg/mL] | MIC (Streptococcus agalactiae) [µg/mL] | MIC (Streptococcus pneumoniae [5]) [µg/mL] | MIC [6] [µg/mL] | MIC (Staphylococcus aureus [7]) [µg/mL] | MIC (Escherichia coli [8]) [µg/mL] | MIC (Pseudomonas aeruginosa [9]) [µg/mL] | MIC [10] [µg/mL] | also measured
CCCCCCCCCCCCCCCC(=O)N(C)[C@H](CO)C(=O)N[C@H](C)C(=O)NCC(=O)N(C)[C@@H]1C(=O)N[C@@H](C)C(=O)N[C@H](C(=O)O)Cc2ccc(O)c(c2)-c2cc1ccc2O [ARYLOMYCIN C16] | 0.25 (≈ 0.284 µM) | > 64 | > 64 | > 64 | > 64 | 8 (≈ 9.08 µM) | 8 (≈ 9.08 µM) | 4 (≈ 4.54 µM) | 2 (≈ 2.27 µM) | 8 (≈ 9.08 µM) | 0.5 (≈ 0.567 µM) | MIC (Prescottella equi): 16 µg/mL (≈ 18.2 µM); Kd [11]: 979 nM; MIC [12]: 0.25 µg/mL (≈ 0.284 µM); MIC [13]: 8 µg/mL (≈ 9.08 µM); MIC (Staphylococcus aureus [14]): > 128 µg/mL; MIC (Staphylococcus aureus [15]): 2 µg/mL (≈ 2.27 µM); MIC (Escherichia coli [16]): > 128 µg/mL; MIC (Escherichia coli [17]): 4 µg/mL (≈ 4.54 µM); MIC (Pseudomonas aeruginosa [18]): > 128 µg/mL; MIC (Pseudomonas aeruginosa [19]): 8 µg/mL (≈ 9.08 µM); MIC [20]: 0.25 µg/mL (≈ 0.284 µM); MIC [21]: 2 µg/mL (≈ 2.27 µM); MIC (Rhodococcus opacus): 2 µg/mL (≈ 2.27 µM); MIC [22]: 2 µg/mL (≈ 2.27 µM); MIC (Helicobacter pylori): 4 µg/mL (≈ 4.54 µM); MIC (Chlamydia trachomatis): 6 µg/mL (≈ 6.81 µM); MIC (Streptococcus pneumoniae [23]): 16 µg/mL (≈ 18.2 µM); MIC (Streptococcus pyogenes): 16 µg/mL (≈ 18.2 µM); MIC (Lactococcus lactis): > 128 µg/mL
CC(C)CCCCCCCCC(=O)N(C)[C@H](CO)C(=O)N[C@H](C)C(=O)NCC(=O)N(C)[C@@H]1C(=O)N[C@@H](C)C(=O)N[C@H](C(=O)O)Cc2ccc(O)c(c2)-c2cc1ccc2O [ARYLOMYCIN A2] | – | – | – | – | – | – | – | – | – | – | 0.5 (≈ 0.606 µM) | –
CCCCCCCCCCCCCCCC(=O)N(C)[C@H](CO)C(=O)N[C@H](C)C(=O)NCC(=O)N(C)[C@@H]1C(=O)N[C@@H](C)C(=O)N[C@H](C(=O)O)Cc2ccc(O)c(c2)-c2cc1ccc2O[C@@H]1O[C@@H](C)[C@H](O)[C@@H](O)[C@H]1O | 0.25 (≈ 0.243 µM) | > 64 | > 64 | > 64 | > 64 | 8 (≈ 7.79 µM) | 8 (≈ 7.79 µM) | 4 (≈ 3.89 µM) | 2 (≈ 1.95 µM) | 16 (≈ 15.6 µM) | – | –
CCCCCCCCCCCCCCCC(=O)N(C)[C@H](CO)C(=O)N[C@H](C)C(=O)NCC(=O)N(C)[C@@H]1C(=O)N[C@@H](C)C(=O)N[C@H](C(=O)O)Cc2cc(c(O)c([N+](=O)[O-])c2)-c2cc1ccc2O | 0.25 (≈ 0.27 µM) | > 64 | > 64 | > 64 | 8 (≈ 8.64 µM) | 16 (≈ 17.3 µM) | 8 (≈ 8.64 µM) | 4 (≈ 4.32 µM) | 2 (≈ 2.16 µM) | 8 (≈ 8.64 µM) | – | –

From ChEMBL document CHEMBL3217468 (Medchemcomm, 2012)
